Results as given in patent US20050267077A1 (priority 2004, published 2005).

Assays:
[1] = test system: Long-Evans rats; assay: 8 hour retention test on a twelve-arm radial maze (spatial memory); format: in vivo, rat; settings: 60 min prior to information session, vs vehicle (p<0.02)
Protocol: 12-arm maze test: Behavioral testing was conducted by an experimenter who was blind to drug treatment. 12 Long-Evans rats trained to use a win-shift strategy were given an information trial. During the information trial, 5 of the 12 arms of the 12 arm maze were blocked so that rats were not able to consume food from those blocked arms but could obtain food from each of the 7 open arms. After this session rats were moved to their home cage and placed back in the animal holding room. […] A retroactive memory error is made when the rat enters an arm that was […] on the information trial.
. Physiological saline (NaCl) was used as vehicle. […]

[2] = test system: rats; assay: Object Recognition Task (episodic memory), 6 hour delay; settings: for performance in the object recognition task: 6 h delay; for Recognition Score: vehicle 60%; for disruption of behavior: first four rats
Protocol: It is based on rodents' natural preference for exploring novel objects over familiar objects. The experimental protocol is as follows:
The experiment takes place over a total of 4 days. Objects used for testing included square 60-mL clear glass tablet bottles with a black phenolic cap (“bottle”) or […] high, 1¼-inch interior diameter aluminum electrical metal tubing conduit couplings (“conduit”). On the first 3 days, the rat was placed into a test box for 15 minutes of habituation. On the fourth day, two identical copies of the same object were arranged in the box, one in each of the near corners about ½ inch from the walls—two bottles for half of the rats, two conduits for the other half. The rat was brought to the test room, placed in the middle of the box facing the center of the back wall, and allowed to explore the objects for a 3-minute information trial, after which it was returned to its home cage and to the housing room. After a specified delay, one copy of the original object (“familiar,” not the copy already encountered) and one copy of the other object (“novel”) were arranged in the near corners, with positions counterbalanced to avoid bias, and the rat was placed back in the box for a recognition trial. […] The result of scoring is the time spent with the novel object, expressed as a %-age number (the “Recognition Score”)
Normal rats spend more time exploring the novel object, indicating memory for the sample object. Increases in the length of the delay, however, reduce the rat's ability to distinguish between the two objects in the recognition trial. For the testing of cognition-enhancing agents, a delay or inter-trial interval (ITI) is typically chosen at which complete forgetting normally occurs (i.e. where the time spent exploring both the novel and familiar object is equal), as this allows for considerable room for improvement in performance.
Both drugs were administered by intraperitoneal (IP) injection.
To generate a dose-effect curve for galantamine, various doses of this compound were administered to rats by IP injection 30 minutes prior to the information trial and compared to vehicle (0.5%-methyl cellulose)-treated controls (FIG. 7A).

[3] = cited from earlier work

SMILES: CCCCP(=O)(O)CCCN [ABPA, 3-aminopropyl-(n-butyl)-phosphinic acid]
- retention test performance on the 12-arm maze ([1]; 150 mg/kg ABPA IP): improved performance
- performance in the object recognition task ([2]; ABPA 3 and 30 mg/kg IP, 30 min prior to information trial, vs saline): no beneficial effect
- performance in the object recognition task ([2]; ABPA 10, 100, 170, and 300 mg/kg IP, 30 min prior to information trial, vs saline): significantly enhanced performance
- Recognition Score ([2]; ABPA alone 3 mg/kg, Example 5 rivastigmine interaction study): 58%
- Recognition Score ([2]; ABPA alone 3 mg/kg, Example 6 galantamine interaction study): 58%

SMILES: COc1ccc2c3c1O[C@H]1C[C@@H](O)C=C[C@@]31CCN(C)C2 [galantamine]
- disruption of behavior ([2]; galantamine 3 mg/kg IP): gross disruption of behavior
- Recognition Score ([2]; galantamine alone 0.17 mg/kg): 55%
- Recognition Score ([2]; galantamine alone 0.3 mg/kg): 62%
- half-life in humans [3]: 5 to 6 h

SMILES: COc1cc2c(cc1OC)C(=O)C(CC1CCN(Cc3ccccc3)CC1)C2 (racemic) [donepezil, (±)-2,3-dihydro-5,6-dimethoxy-2-[[1-(phenylmethyl)-4-piperidinyl]methyl]-1H-inden-1-one]
- retention test performance on the 12-arm maze ([1]; 3 mg/kg donepezil IP): improved performance
- performance in the object recognition task ([2]; donepezil 1.7 mg/kg IP, 30 min prior to information trial): significantly improved performance
- adverse side effects in the rat ([2]; donepezil doses higher than 1.7 mg/kg IP): began to produce adverse side effects

SMILES: CCN(C)C(=O)Oc1cccc([C@H](C)N(C)C)c1 [rivastigmine]
- disruption of behavior ([2]; rivastigmine 1 mg/kg IP): grossly disrupted behavior
- effect on memory in the object recognition task ([2]; rivastigmine 0.01, 0.017, 0.03, 0.056, 0.17 and 0.3 mg/kg IP, vs vehicle): no significant effect on memory
- performance in the object recognition task ([2]; rivastigmine 0.1 IP, 30 min prior, vs vehicle (p=0.056)): approached a significant improvement in performance
- Recognition Score ([2]; rivastigmine alone 0.01 mg/kg): 55%
- Recognition Score ([2]; rivastigmine alone 0.017 mg/kg): 59%
- half-life in humans [3]: about 1.5 h
